Tests used:
[1] = molecular target: Metabotropic glutamate receptor 2 (Homo sapiens, UniProt Q14416); experiment: Concentration required to inhibit mGluR2 receptor
[2] = molecular target: Metabotropic glutamate receptor 1 (Homo sapiens, UniProt Q13255); experiment: Inhibitory activity against mGluR1 receptor
Chain of Metabotropic glutamate receptor 1 (Q13255 whole entry): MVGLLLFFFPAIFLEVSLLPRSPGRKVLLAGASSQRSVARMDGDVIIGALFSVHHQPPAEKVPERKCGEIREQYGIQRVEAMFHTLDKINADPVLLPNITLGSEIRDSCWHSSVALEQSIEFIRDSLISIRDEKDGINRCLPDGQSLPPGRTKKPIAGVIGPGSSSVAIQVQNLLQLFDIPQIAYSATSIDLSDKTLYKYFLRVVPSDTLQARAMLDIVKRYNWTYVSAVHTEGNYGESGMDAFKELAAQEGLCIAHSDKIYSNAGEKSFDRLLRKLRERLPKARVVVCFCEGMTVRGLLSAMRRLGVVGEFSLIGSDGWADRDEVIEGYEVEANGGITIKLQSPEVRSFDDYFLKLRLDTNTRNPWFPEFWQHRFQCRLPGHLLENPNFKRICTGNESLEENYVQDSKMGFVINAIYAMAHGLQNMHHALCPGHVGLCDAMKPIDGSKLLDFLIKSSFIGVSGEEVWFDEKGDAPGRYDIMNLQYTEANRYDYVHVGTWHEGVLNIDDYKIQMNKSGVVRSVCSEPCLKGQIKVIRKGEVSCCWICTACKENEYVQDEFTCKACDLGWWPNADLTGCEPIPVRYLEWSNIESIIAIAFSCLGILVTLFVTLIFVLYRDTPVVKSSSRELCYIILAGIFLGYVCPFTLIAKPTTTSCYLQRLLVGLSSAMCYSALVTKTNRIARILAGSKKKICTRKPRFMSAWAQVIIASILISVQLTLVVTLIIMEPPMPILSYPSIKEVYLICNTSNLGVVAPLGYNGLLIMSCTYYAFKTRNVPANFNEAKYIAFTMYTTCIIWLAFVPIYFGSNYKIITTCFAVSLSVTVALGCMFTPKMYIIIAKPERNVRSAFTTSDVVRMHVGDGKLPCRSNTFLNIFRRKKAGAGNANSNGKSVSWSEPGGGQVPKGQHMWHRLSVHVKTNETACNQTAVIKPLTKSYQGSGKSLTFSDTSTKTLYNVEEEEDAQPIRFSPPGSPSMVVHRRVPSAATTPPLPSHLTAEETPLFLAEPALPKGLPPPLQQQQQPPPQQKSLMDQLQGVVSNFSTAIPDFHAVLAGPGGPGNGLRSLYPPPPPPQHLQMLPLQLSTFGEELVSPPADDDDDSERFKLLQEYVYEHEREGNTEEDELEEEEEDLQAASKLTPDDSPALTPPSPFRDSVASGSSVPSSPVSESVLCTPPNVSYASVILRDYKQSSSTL

Chain of Metabotropic glutamate receptor 2 (Q14416 whole entry): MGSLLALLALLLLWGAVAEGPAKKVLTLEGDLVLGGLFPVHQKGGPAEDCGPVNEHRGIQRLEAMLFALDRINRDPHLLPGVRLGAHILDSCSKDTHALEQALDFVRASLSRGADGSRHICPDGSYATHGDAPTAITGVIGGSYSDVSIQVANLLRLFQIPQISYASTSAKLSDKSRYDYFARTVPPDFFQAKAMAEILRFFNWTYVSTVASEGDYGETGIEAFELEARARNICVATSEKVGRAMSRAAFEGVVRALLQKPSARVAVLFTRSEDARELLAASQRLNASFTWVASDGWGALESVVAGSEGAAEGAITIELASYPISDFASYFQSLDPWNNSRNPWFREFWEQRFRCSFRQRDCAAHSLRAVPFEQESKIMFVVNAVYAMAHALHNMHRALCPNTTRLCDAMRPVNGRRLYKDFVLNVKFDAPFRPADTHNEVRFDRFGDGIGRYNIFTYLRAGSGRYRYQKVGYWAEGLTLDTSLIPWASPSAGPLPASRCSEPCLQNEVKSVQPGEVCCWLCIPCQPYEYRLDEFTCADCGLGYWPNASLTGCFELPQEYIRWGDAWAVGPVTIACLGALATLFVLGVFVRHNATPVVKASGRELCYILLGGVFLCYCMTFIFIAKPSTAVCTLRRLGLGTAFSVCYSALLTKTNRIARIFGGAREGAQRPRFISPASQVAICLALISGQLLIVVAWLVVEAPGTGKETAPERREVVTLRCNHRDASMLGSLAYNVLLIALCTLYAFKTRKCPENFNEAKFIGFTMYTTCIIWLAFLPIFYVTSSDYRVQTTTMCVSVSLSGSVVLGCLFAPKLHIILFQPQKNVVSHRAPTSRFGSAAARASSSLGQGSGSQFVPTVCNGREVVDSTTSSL

N[C@H](C(=O)O)C12C3C4C1C1C2C3C41C(=O)O (some centres not stated)
EC50 [1]: 54.9 µM
IC50 [2]: 232 µM

From ChEMBL document CHEMBL1130848, “Synthesis and preliminary evaluation of (S)-2-(4'-carboxycubyl)glycine, a new selective mGluR1 antagonist” (Bioorg Med Chem Lett, 1998)
